Experimental data as given in PubChem BioAssay AID743395 (Broad Institute, 2014).

System: HepG2 viability, CellTiter-Glo ATP luminescence, 72 h
Assay: HepG2 cell cytotoxicity, dose response, cytotoxicity control, CellTiter-Glo luminescence, cherry-pick, set 2 (AID 743395)

SMILES	AC35 [µM]
CC(=O)Nc1ccc(S(=O)(=O)NC2=C(N3CCN(Cc4ccccc4)CC3)C(=O)c3ccccc3C2=O)cc1	17.1
COC(=O)c1ccccc1-c1c2ccc(=N)cc-2oc2cc(N)ccc12	15.8
O=C(C[C@@H]1CC[C@H]2[C@@H](COC[C@H](O)CN2Cc2ccc3c(c2)OCO3)O1)Nc1ccc(-c2ccccc2)cc1	16.8
O=C(NCCOc1ccccc1)c1cc([N+](=O)[O-])ccc1N1CCOCC1	6.79
Cc1cccc(NS(=O)(=O)c2ccc(-c3cnc(C4CC4)o3)cc2)c1	5.11
COc1ccc(C)cc1Nc1c2c(nc3ccccc13)CCC2	8.79
CCOC(=O)[C@]12CCCC=C1N(Cc1cccc3ccccc13)C(=O)[C@H](CC(=O)NCc1cccc(C(F)(F)F)c1)C2	9.99
CCCC(=O)NC(c1ccc(N(C)C)cc1)c1ccc2cccnc2c1O (configuration not stated)	1.18
Cc1ccc(S(=O)(=O)N2CCCCC2CCNC(=O)C(=O)NCc2ccccc2)cc1 (configuration not stated)	12.5
COc1cc(OC)c2c(-c3cccc(-c4cccc(N)c4)c3)cc(=O)oc2c1	13.4
Cn1c(C(=O)c2ccccc2[N+](=O)[O-])nc2ccccc21	14.3
COc1ccc(OC)c(/C(C)=N\NC(=O)c2cc3cc(Cl)ccc3n2C)c1	14
Cc1ccc(C(=O)N/N=C/c2cc(Br)ccc2O)cn1	17.8
O=C(CCc1ccccc1)NCC(c1ccco1)N1CCc2ccccc21 (configuration not stated)	16.7
O=C(NN=C1CCCC1)c1[nH]c2ccc(Cl)cc2c1-c1ccccc1	18.9
COc1cccc(Nc2nc(-c3sc(NC(=O)c4ccccc4)nc3C)cs2)c1	6.58
C[C@H]1CN([C@@H](C)CO)C(=O)Cc2cc(NC(=O)Nc3ccc(C(F)(F)F)cc3)ccc2O[C@H]1CN(C)S(=O)(=O)c1ccccc1	10.1
Cc1ccc(/C=N/NC(=O)c2c(-c3ccccc3)noc2C)c(O)c1	18.4
COc1ccc(-c2cc(NC=O)c3ncc(-c4ccc(OC)c(OC)c4)n3c2)cc1	6.95
COc1ccc(C2=Nn3c(nnc3-c3ccccc3F)SC2)cc1OC1CCOC1 (configuration not stated)	13.2
C[C@@H]1CN([C@@H](C)CO)C(=O)Cc2cc(NC(=O)Nc3cccc4ccccc34)ccc2O[C@@H]1CN(C)Cc1ccc(Cl)c(Cl)c1	14.5
Oc1cccc(/C=N/Nc2ccc(Cl)nn2)c1O	7.7
Cc1nc(C)c(C(=O)NN=Cc2ccc(N(CCCl)CCCl)cc2)s1	11.8
Nc1c2ccccc2nc2ccccc12	2.63

SMILES	AC35 [µM]
CCc1cc(-c2nnn(CCC3COCCO3)c2CC)ccc1-c1cn(Cc2ccc3ccccc3c2)nn1 (configuration not stated)	15.8
COc1ccc(C2=NOC(C(=O)NCc3ccc(F)cc3)C2)cc1OC (configuration not stated)	7.73
CC(C)C[C@H](NC(=O)c1nc[nH]c1C(=O)N1CCN(C(=O)OC(C)(C)C)CC1)C(=O)OC(C)(C)C	14.6
COc1ccc(-c2ccc3c(c2)[C@H]2[C@H](CCN2S(=O)(=O)c2ccc(OC)cc2)[C@@H](CO)N3C)cc1	18.2
Nc1sc(-c2ccccc2)cc1-c1n[nH]c(=S)n1C1CCCCC1	7.54
CC(=O)Nc1ccc2cc3ccc(NC(C)=O)cc3nc2c1	11.6
N#CC1=C(N)Oc2cc(N)ccc2C1c1cccc(F)c1 (configuration not stated)	6.38
COC1C(C)OC(OC2CC(C)(O)Cc3cc4c(c(O)c32)C(=O)c2c(O)cc3c(c2C4=O)OC2OC3(C)C(O)C(N(C)C)C2O)C(OC)C1(C)OC (configuration not stated)	5.03
Cc1cccc(N(C)C(=O)c2cc3c(=O)[nH]c4ccc(C)cc4c3s2)c1	4.26
C[C@H]1CN([C@@H](C)CO)S(=O)(=O)c2ccc(C#Cc3ccc(F)cc3)cc2O[C@H]1CN(C)C(=O)NC1CCCCC1	11.9
COc1ccc(NC(=O)c2nc(C)c(C3(C)CC(c4cccnc4)=NO3)s2)cc1 (configuration not stated)	13.9
Cc1onc(-c2ccccc2Cl)c1C(=O)N1CCN(c2cccc(Cl)c2)CC1	13.5
COCCNC(=O)c1cc(-c2ccc(-c3ccccc3)cc2)nc2ccccc12	17.9
Cc1ccc(COc2ccccc2-c2cc(C(=O)N/N=C/c3cccnc3)[nH]n2)cc1	14.7
COc1ccc(O)c(/C=N/NC(=O)c2ccc(N3CCCC3=O)cc2)c1	2.93
CC(C)Oc1ncnc2c1[nH]c1ccccc12	8.5
COc1ccccc1NC(=S)N(Cc1ccco1)Cc1cc2cc(C)cc(C)c2[nH]c1=O	11.6
CNc1c2cccc(C)c2nc2c(C(=O)NCCN(C)C)cccc12	0.428
O[Si](CCCN1CCCCC1)(c1ccc(F)cc1)C1CCCCC1 (configuration not stated)	10.3
COc1ccc(CC(=O)NCc2ccc(-n3cccc3)cc2)cc1OC	9.29
Cc1ccc(C(=O)NC(=S)NNC(=O)c2ccccc2O)cc1	17.2
CN1c2ccc(-c3ccc(F)cc3)cc2[C@H]2[C@H](CCN2S(=O)(=O)c2cccc(F)c2)[C@H]1CO	17.2
COc1cc(/C=C2/SC(=Nc3ccc(O)cc3)NC2=O)cc(OC)c1O	14.7
Cc1cccc(Nc2nc(N)nc(-c3oc4ccccc4c3C)n2)c1	15.4

SMILES	AC35 [µM]
COc1cc(OC)cc(C(=O)c2c(C)c(C#N)c3ccccn23)c1	9.29
COc1cccc(S(=O)(=O)N2C[C@@H]3N[C@H](C2)C3c2ccc(-c3cccc(C)c3)cc2)c1 (some centres not stated)	12
O=C1C=C(NCCc2cc(Br)c(O)c(Br)c2)C(=O)c2ncccc21	6.95
CC(C)(C)N(Cc1ccccc1)C(=O)c1cc2ccccc2o1	16.1
COc1nc(-c2ccccc2)cc(-c2ccc3c(c2)OCO3)c1C#N	8.32
Cc1ccc2c(c1)CCCN2C(=O)CCc1nc2ccccc2c(=O)[nH]1	7.93
Cc1ccc(-n2nnnc2SCC(=O)NC(C(=O)O)(c2ccccc2)c2ccccc2)cc1C	15
Cc1ccc2[nH]c(C(=O)N/N=C/c3ccccc3O)c(C)c2c1	2.41
COc1ccc(S(=O)(=O)Nc2ccc3c(c2)C(=O)N([C@H](C)CO)C[C@@H](C)[C@@H](CN(C)Cc2ccc(Cl)c(Cl)c2)O3)cc1	14.1
Clc1ccc2c(c1)-c1ccccc1C1=NCCN12	3.06
O=C1CN(S(=O)(=O)Cc2ccccc2)C[C@@H]2[C@@H](c3ccc(C#Cc4cccc(F)c4)cc3)[C@@H](CO)N12	7.38
CN1C(=CC=C2C=C(I)C(=O)C(I)=C2)C(C)(C)c2ccccc21	3.56
O=C(C1CC1)N1CC(=O)N2[C@H](CO)[C@@H](c3ccc(-c4ccccc4F)cc3)[C@@H]2C1	18.9
COc1cccc2c1C(=O)c1c(O)c3c(c(O)c1C2=O)C[C@@](O)(C(C)=O)C[C@@H]3O[C@H]1C[C@H](N)[C@H](O)[C@H](C)O1	0.156
COc1ccccc1Nc1nc(-c2sc(NC(=O)C(C)(C)C)nc2C)cs1	15.7
COc1ccc([C@H]2C[C@H](O)[C@@H](n3cc(-c4ccc(F)cc4)nn3)CN2Cc2cccs2)cc1	6.12
COc1ccc(-c2ccc3c(c2)[C@H]2[C@H](CCN2S(=O)(=O)c2ccc(OC)cc2)[C@H](CO)N3C)cc1	6.5
CCOc1ccc(C(=O)COC(=O)Cc2n[nH]c(=O)c3ccccc23)cc1	19.3
CCC(COC(=O)c1cc(OC)c(OC)c(OC)c1)(c1ccccc1)N(C)C (configuration not stated)	18.4
Nc1ccn([C@@H]2O[C@H](CO)[C@@H](O)[C@@H]2O)c(=O)n1	7.89
O=C1c2cccc3c(O)ccc(c23)C(=O)N1Cc1ccco1	15.6
O=c1ccc2[n+]([O-])c3ccc(O)cc3oc-2c1	13.2
COc1ccc(OC)c(-c2cnc(OC(C)(C)C)nc2OC(C)(C)C)c1	19.3
Nc1ccc2c3c(cccc13)C(=O)N(c1ccccc1)C2=O	10.7
